Read-outs that look alike come from different tables or passages of the source.

The test addresses human cytidine deaminase (CDA) (Homo sapiens, UniProt P32320, Y33G). The test is described as follows: biochemical. The test is classed as biochemical.

Sequence of human cytidine deaminase (CDA) (P32320 whole entry Y33G): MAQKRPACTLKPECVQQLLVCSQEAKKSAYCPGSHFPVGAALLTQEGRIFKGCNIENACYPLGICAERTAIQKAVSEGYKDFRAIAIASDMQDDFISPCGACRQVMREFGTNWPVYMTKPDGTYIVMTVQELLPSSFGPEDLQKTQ

In turn, `O=c1ncc(F)cn1[C@@H]1O[C@H](CO)[C@@H](O)[C@H]1O` [5-FZEB, 5-Fluorozebularine] yielded a Ki of 200 nM.

With “6-[3,5(cytidyl)acryloylamino] hexanoic acid [CV6]”, the Ki (read-out: Y33G) was 3400 nM.

The record behind these values is article PMC3020594 (International journal of biological macromolecules, 2010).
